# Source: patent US11224565B2, “N-acyldipeptide derivatives and their uses” (NeoStrata Company, Inc., priority 2011, dated 2022)
# Peptide text beside a SMILES is read from it.
# What was measured:
# Type in all cases: in vivo, human
# [1] = tested on: Deranged immune disorders and inflammation; assay: Summary of test results in volunteer subjects: deranged immune disorders and inflammation; conditions: efficacy grade
# Text: (§1) In one embodiment, a composition for topical application to test its therapeutic effect was formulated by dissolving a bioactive dipeptide derivative of the present invention in a solution prepared from 40 parts water, 40 parts ethanol and 20 parts propylene glycol by volume (WEP442). In another embodiment, a composition was formulated by dissolving a bioactive dipeptide derivative of the present invention in a non-aqueous solution prepared from 80 parts ethanol and 20 parts propylene glycol by volume (EP82). In yet another embodiment, a composition was formulated first by dissolving a bioactive dipeptide derivative of the present invention in a solution prepared from 80 parts water and 20 parts propylene glycol by volume (WP82), and the solution thus prepared was mixed with an oil-in-water emulsion or cream. In another embodiment, the volunteer subject topically applied the test compositions containing N-acyldipeptide derivatives of the present invention on involved skin or lesions once or twice daily for several weeks or until the involved lesions completely cleared and clinically changed to normal skin. As a control study, the subject also topically applied a vehicle control composition on the involved skin or lesions twice daily for the same period. In yet another embodiment, the volunteer subject topically applied once or twice daily the test compositions containing N-acyldipeptide derivatives of the present invention on the skin site above arthritic joints or painful muscles to provide therapeutic effects for the systemic disorders via topical administration. Some test results are summarized as follows. DI: Deranged immune disorders and inflammation
# Disturbed keratinization = assay: Summary of test results in volunteer subjects: disturbed keratinization; conditions: efficacy grade
# Text: as §1, with “DK: Disturbed keratinization” for “DI: Deranged immune disorders and inflammation”
# [2] = tested on: Aging related changes of skin, nail and hair; assay: Summary of test results in volunteer subjects: aging related changes; conditions: efficacy grade
# Text: as §1, with “AG: Aging related changes of skin, nail” for “DI: Deranged immune disorders”, “hair” for “inflammation”
# Nerve disorders = assay: Summary of test results in volunteer subjects: nerve disorders; conditions: efficacy grade
# Text: as §1, with “ND: Nerve” for “DI: Deranged immune”, “disorders” for “disorders and inflammation”
# [3] = tested on: age spots including lentigines and keratosis; assay: Topical treatment of age spots on face; conditions: twice daily, after 4 weeks; 1% (w/v) N-Ac-L-Cys-L-Tyr-NH2 in WEP442 pH 6.4 left side, 0.4% (w/v) N-Ac-L-Cys-L-Cys-NH2 in WEP442 right side
# Text: A subject had multiple age spots including lentigines and keratosis on their face. Topical treatments with conventional medications including hydroquinone with or without glycolic acid had been unsuccessful. The subject topically applied twice daily to the left side of their face 1% (w/v) N—Ac-L-Cys-L-Tyr-NH2 in WEP442, pH 6.4 (Example 5), and to the right side of their face 0.4% (w/v) N—Ac-L-Cys-L-Cys-NH2 in WEP442 (Example 5) for several months. […] Continued topical applications of the formulations should improve or eradicate lentigines and keratosis of the face.
# insect bites = assay: Topical application to insect bite lesions (itch, erythema, inflammation); conditions: 10% (w/w) cream on insect bites of left arm
# Procedure: A subject, having intensive itch and erythema on their left arm from insect bites, topically applied 10% (w/w) N—Ac-L-Leu-Gly-NH2 cream as formulated in Example 3 on the involved lesions.
# A subject had multiple lesions of insect bites (mosquitoes) over the face and arms with itch and inflammatory lesions of more than 1 cm in size. For testing purposes, the subject divided the lesions into three groups: the first group was treated with vehicle control, the second and third groups were treated with active compositions. The subject topically applied twice daily 0.5% (w/v) N—Ac-L-Val-L-Ala-NH2 solution in WEP442, pH 5.9 on the lesions of the second group, and 0.5% (w/v) N—Ac-L-Tyr-L-Tyr-NH2 solution in WEP442, pH 6.7 (Example 5) on the lesions of the third group. […] The lesions in the second and third groups also started to improve over the next few days. At the end of three days, while there was no discernible change in the lesions treated with vehicle control in the first group, the lesions in the second and third groups had 90-100% improvement with nearly complete disappearance of inflammatory lesions.
# A subject had multiple lesions of chigger bites (grass mites) over the legs with intensive itch and red inflammatory lesions. The subject topically applied twice daily 0.5% (w/v) N—Ac-L-Val-L-Ala-NH2 solution in WEP442, pH 6.7 (Example 5) on the lesions. […] The lesions on the legs had 100% improvement as judged by clinical evaluation.
# (§2) In another embodiment, the volunteer subject topically applied the test compositions containing N-acyldipeptide derivatives of the present invention on involved skin or lesions once or twice daily for several weeks or until the involved lesions completely cleared and clinically changed to normal skin. As a control study, the subject also topically applied a vehicle control composition on the involved skin or lesions twice daily for the same period.
# [4] = tested on: inflammation, dermatitis, or eczema lesions; assay: Topical application to chronic inflammation, dermatitis, eczema or allergic skin lesions, clinical evaluation
# Text: as §2
# forearm skin = assay: Skin thickness of forearm by micrometer calipers after topical application; conditions: for increase in skin thickness of treated left forearm: 2% (w/v) in WEP442 topically twice daily, vehicle forearm no change
# Procedure: In one of the studies related to skin changes associated with aging, skin thickness was measured by micrometer calipers as follows. The skin was grasped with a 2×6 cm metal hinge; the internal faces of which were coated with emery cloth to prevent slippage, and manually squeezed to threshold subject discomfort. Combined thickness of two whole-skin layers including thickness of the two hinge leaves was measured with micrometer calipers. Thickness of the two hinge leaves was subtracted to determine the actual thickness of two whole-skin layers. Triplicate measurements on treated sites were done and an average number was used for calculation of the skin thickness. In other studies, test sites of skin 17 mm in diameter were used, the circular sites were marked with permanent ink. Intervening control sites were also 17 mm in diameter. Thickness of skin of all sites was measured directly by means of an electronic digital caliper. In this instance the jaws of the caliper were opened to 17 mm, applied with pressure to the skin sites and then closed to firm tightness. Thickness of skin was then read off the screen of the calipers. Measurements of all sites were made in triplicates.
SMILES,DI [1],DK (Disturbed keratinization),AG [2],ND (Nerve disorders),age spot lesions of face [3],itch after topical application (insect bites),time the pruritus did not return (insect bites),erythema and inflammation (insect bites; after 12 hours),"improvement as judged by clinical evaluation ([4]; 6% (w/w) oil-in-water emulsion twice daily, chronic eczema large body areas, end of 10 days)","itch after topical application ([4]; 6% (w/w) oil-in-water emulsion twice daily, chronic eczema large body areas, person)","improvement as judged by clinical evaluation ([4]; 7% (w/w) oil-in-water emulsion twice daily, chronic eczema, end of 10 days)","itch after topical application ([4]; 7% (w/w) oil-in-water emulsion twice daily, chronic eczema, person)","improvement as judged by clinical evaluation ([4]; 10% (w/w) cream twice daily, chronic eczema right leg, end of one week)","itch after topical application ([4]; 10% (w/w) cream twice daily, chronic eczema right leg, person)","appearance of treated left forearm at end of treatment (forearm skin; 1-3% (w/v) in WEP442 topically twice daily for 1-6 weeks as in the example, vehicle forearm still loose, thin and wrinkled)",increase in skin thickness of treated left forearm (forearm skin; after one week),increase in skin thickness of treated left forearm (forearm skin; after three weeks),increase in skin thickness of treated left forearm (forearm skin; after two weeks),"improvement as judged by clinical evaluation ([4]; chronic eczema, twice daily, two weeks, 0.6% (w/w) N-Ac-L-Tyr-L-Tyr-NHNH2 cream on one set of lesions, 0.7% (w/w) N-Ac-L-Tyr-L-Tyr-NHNHAc cream on another)","itch after topical application ([4]; chronic eczema, twice daily, 0.6% (w/w) N-Ac-L-Tyr-L-Tyr-NHNH2 cream on one set of lesions, 0.7% (w/w) N-Ac-L-Tyr-L-Tyr-NHNHAc cream on another)"
CC(=O)N[C@@H](CS)C(=O)N[C@@H](CS)C(N)=O [N-Ac-L-Cys-L-Cys-NH2] (Ac-Cys-Cys-NH2),2+ (2+: 50% Efficacy),2+ (2+: 50% Efficacy),3+ (3+: 75% Efficacy),2+ (2+: 50% Efficacy),started to improve noticeably,,,,,,,,,,,,,,,
CC(=O)N[C@@H](CS)C(=O)N[C@@H](Cc1ccc(O)cc1)C(N)=O [N-Ac-L-Cys-L-Tyr-NH2] (Ac-Cys-Tyr-NH2),2+ (2+: 50% Efficacy),2+ (2+: 50% Efficacy),2+ (2+: 50% Efficacy),3+ (3+: 75% Efficacy),started to improve noticeably,,,,,,,,,,,,,,,
CC(=O)N[C@@H](CC(C)C)C(=O)NCC(N)=O [N-Ac-L-Leu-Gly-NH2] (Ac-Leu-Gly-NH2),4+ (4+: 95-100% Efficacy),3+ (3+: 75% Efficacy),3+ (3+: 75% Efficacy),4+ (4+: 95-100% Efficacy),,stopped within a few minutes,6 h,improved,95%,stopped within a few minutes,90-100%,stopped within a few minutes,50%,stopped within a few minutes,,,,,,
CC(=O)N[C@@H](Cc1ccc(O)cc1)C(=O)N[C@@H](Cc1ccc(O)cc1)C(=O)NN [N-Ac-L-Tyr-L-Tyr-NHNH2] (HELM PEPTIDE1{[ac].Y.Y.[NN[*:1]]}$$$$V2.0),2+ (2+: 50% Efficacy),3+ (3+: 75% Efficacy),3+ (3+: 75% Efficacy),2+ (2+: 50% Efficacy),,,,,,,,,,,"more firm, smooth, plump, and less wrinkled when lifted",15%,32%,14%,75%,stopped a few minutes after
